{"source": "patent US20210317454A1", "about": "“USE OF A TLR9 AGONIST IN METHODS FOR TREATING COVID-19” (priority 2020, published 2021)", "key": {"SARS-CoV2 [1]": {"system": "SARS-CoV2", "assay_type": "cell-based"}, "[2]": {"system": "mediastinal lymph node immune cells", "assay_type": "in vivo, BL6 mice", "settings": "both pre and post-infection administration; B cells, CD4+, CD8+, granulocytes, macrophages, dendritic cells"}, "Calu3 cells": {"system": "Calu3 cells", "settings": "dilutions above this excluded from analyses of conditions 1 and 2"}, "SARS-CoV2 [3]": {"system": "SARS-CoV2", "settings": "for toxicity in mice: intranasal 2.5 mg/kg, 8 BL6 mice"}, "HCV": {"system": "HCV", "settings": "cited from earlier work"}, "[4]": {"system": "B16. F10 melanoma mouse models of colon carcinoma pulmonary metastasis", "settings": "intranasal administration at very low doses compared with subcutaneous; cited from earlier work"}, "[5]": {"system": "B16. F10 melanoma pulmonary metastasis", "settings": "intranasal versus subcutaneous; cited from earlier work"}, "tumor microenvironment": {"system": "tumor microenvironment", "settings": "cited from earlier work"}}, "note": "Entries after “also recorded” stand apart in the source; their conditions may differ. Where two headings read alike, the source gives them in different places.", "data": [{"substance": "tilsotolimod: phosphorothioate oligonucleotide agonist of TLR9, sequence 5LTCG1AACG1TTCG1-X-G1CTTG1CAAG1CT-5′, X glycerol linker, G1 2′-deoxy-7-deazaguanosine (SEQ ID NO. 1) (DNA TCGAACGTTCGGCTTGCAAGCT; phosphorothioate, 7-deazaG, glycerol-linked 3'-3' dimer; (3)..(3) 2′-deoxy-7-deazaguanosine; (7)..(7) 2′-deoxy-7-deazaguanosine; (11)..(12) Linked by is a glycerol linker; (11)..(11) 2′-deoxy-7-deazaguanosine; (12)..(12) 2′-deoxy-7-deazaguanosine; (16)..(16) 2′-deoxy-7-deazaguanosine; (20)..(20) 2′-deoxy-7-deazaguanosine)", "values": [{"measurement": "antiviral activity compared with controls", "setting": "SARS-CoV2 [1]; treatment condition 1: 24 h pre-treatment, then infection for 48 hours", "result": "None of the serial dilutions for treatment condition 1 (tilsotolimod 24 h pre-treatment) resulted in significant antiviral activity"}, {"measurement": "reduction in TCID50", "setting": "SARS-CoV2 [1]; treatment condition 2: co-treatment with SARS-CoV2 for 48 hours, most effective dilution 0.41 μM", "result": "~1", "unit": "log"}, {"measurement": "reduction in TCID50", "setting": "SARS-CoV2 [1]; treatment condition 3: supernatant of 24 h pretreated Calu3 cells added to fresh cells then infected, 1:10 serial dilution (33 μM)", "result": "~3", "unit": "log"}, {"measurement": "number of immune cells in the mediastinal lymph nodes", "setting": "[2]", "result": "robust infiltration of immune cells; also recorded: robust changes in the number of immune cells"}, {"measurement": "concentration above which tilsotolimod induced toxicity", "setting": "Calu3 cells", "result": "above 3 μM"}, {"measurement": "infectious SARS-CoV2 titer (TCID50/Lung)", "setting": "SARS-CoV2 [3]; intranasal 2.5 mg/kg one day after virus exposure, lungs three days post-infection", "result": "reduced infection, although not statistically significant"}, {"measurement": "toxicity in mice", "setting": "SARS-CoV2 [3]; post-treatment group", "result": "No toxicity was observed"}, {"measurement": "toxicity in mice", "setting": "SARS-CoV2 [3]; pre-treatment group", "result": "one mouse died, and two showed signs of reduced mobility"}, {"measurement": "viral load reductions", "setting": "HCV; 0.16 mg/kg twice weekly plus ribavirin compared with pegIFN-α2a plus ribavirin", "result": "greater"}, {"measurement": "rapid viral response", "setting": "HCV; HCV-infected patients, all dose groups", "result": "none of the patients achieved rapid viral response"}, {"measurement": "tolerability", "setting": "HCV; subcutaneous 0.08, 0.16, 0.32 mg/kg once weekly and 0.16 mg/kg twice weekly, 4 weeks, with ribavirin", "result": "well tolerated with no discontinuations due to treatment-emergent adverse events"}, {"measurement": "cytokine storm", "setting": "HCV; tilsotolimod trials involving HCV", "result": "cytokine storm was not observed"}, {"measurement": "tumor-specific CTLs in tracheobronchial lymph nodes", "setting": "[4]", "result": "significant increase"}, {"measurement": "antitumor potency of intranasal relative to subcutaneous treatment", "setting": "[5]", "result": "approximately 25 times"}, {"measurement": "Type I IFN pathway and dendritic cell maturation", "setting": "tumor microenvironment; IFNα gene signature, MHC class I expression, patient biopsies", "result": "Activation of the Type I IFN pathway (induction of an IFNα gene signature) followed by maturation of dendritic cells"}, {"measurement": "time to immune effects in the tumor microenvironment", "setting": "tumor microenvironment; biopsies after receiving tilsotolimod", "result": "≤ 24", "unit": "h"}, {"measurement": "CD8+ cytotoxic T lymphocytes and tumor response", "setting": "tumor microenvironment; injected and non-injected tumors", "result": "systemic increases in CD8+ cytotoxic T lymphocytes (CTLs) with subsequent reduction of both injected and non-injected tumors"}]}]}
